For orientation: fraction remaining means what is left of the initial amount, in per cent. A higher fraction remaining goes with greater stability. For orientation: EC50 means the concentration that produces a half-maximal response.

Molecules are shown by their SMILES. Like-named read-outs stand apart in the source and are kept apart here. Starred links: 1 amine or outer side, 2 acyl side, 3 side chain; linkers in the order of their positions; H or OH if unused. Non-standard residues stand in square brackets, D forms with d. Residues, ends and D or L forms follow the SMILES beside them. *: point of attachment. dBip = N[C@H](Cc1ccc(-c2ccccc2)cc1)C(=O)O; Oic = O=C(O)[C@@H]1C[C@@H]2CCCC[C@@H]2N1; Phe(4-Cl) = N[C@@H](Cc1ccc(Cl)cc1)C(=O)O; Phe(4-I) = N[C@@H](Cc1ccc(I)cc1)C(=O)O; γGlu = O=C(O)[C@H](CCC(=O)[*:2])N[*:1]; 2Nal = N[C@@H](Cc1ccc2ccccc2c1)C(=O)O; dIgl = N[C@@H](C(=O)O)C1Cc2ccccc2C1; NMeR = CN[C@@H](CCCNC(=N)N)C(=O)O; Tridecanoyl = CCCCCCCCCCCCC(=O)*; hArg = N=C(N)NCCCC[C@H](N)C(=O)O; Cha = N[C@@H](CC1CCCCC1)C(=O)O; NMeL = CN[C@@H](CC(C)C)C(=O)O; Nle = CCCC[C@H](N)C(=O)O; Deg = CCC(N)(CC)C(=O)O; AEEA = NCCOCCOCC(=O)O; Aib = CC(C)(N)C(=O)O; βAla = NCCC(=O)O

The source of these data is patent US11807693B2 (priority 2014, dated 2023).

The nature of data set [1]: In vitro stability in rat liver homogenate. Type of data set: in vitro ADME. The settings on record: tissue homogenate. The method, then: (§1) Apelin peptides were spiked into rat plasma, liver homogenate, and kidney homogenate, which were obtained from commercial sources, to a final concentration of 5 μM. The samples were then incubated at 37° C. over a period of 4 hr. […] In a typical experiment, an aliquot of 100 μL of sample was taken from the incubation vial, followed by addition of 300 μL of MeOH containing internal standard. The quenched sample was centrifuged at 5500 g for 15 min after 15 min vortex in room temperature. The supernatant was then analyzed by high resolution LC-MS. […] In vitro plasma, […], and kidney stability results are shown below in Table 14.

Data set [2] is described as follows: In vitro stability in rat plasma. In kind it is in vitro ADME. The method, then:
as §1

Another data set has as its target T1, rat APJ receptor (Rattus norvegicus, UniProt Q9JHG3).
T1 construct: expressed in transfected cells
T1 sequence (Q9JHG3 1-377): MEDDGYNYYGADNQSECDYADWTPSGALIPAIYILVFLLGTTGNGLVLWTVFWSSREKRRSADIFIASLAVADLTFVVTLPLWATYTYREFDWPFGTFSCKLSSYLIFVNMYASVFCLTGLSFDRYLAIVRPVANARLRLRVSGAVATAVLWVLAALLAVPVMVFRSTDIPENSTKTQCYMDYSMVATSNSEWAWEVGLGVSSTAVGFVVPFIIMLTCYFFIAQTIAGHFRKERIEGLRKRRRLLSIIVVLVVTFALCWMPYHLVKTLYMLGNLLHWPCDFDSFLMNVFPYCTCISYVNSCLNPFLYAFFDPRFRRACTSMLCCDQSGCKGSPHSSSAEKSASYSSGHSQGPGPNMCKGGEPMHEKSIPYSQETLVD
Nature of the data set: [35S] GTPγS assay, rat APJ receptor. Type of data set: biochemical. As to the method:
The membranes were incubated with modified peptides in the assay buffer. […] Bound [^35S] GTPγS was separated from free radiolabel by filtration. The filter bound radioactivity was determined by liquid scintillation counting.
(In general: GTPγS is a poorly hydrolysed GTP analogue; its binding reports G protein activation.)

Setting [3] is: Table 16, read-out: EC50 Rat APJ Receptor.
Setting [4] is: rat APJ receptor, read-out: EC50 Rat APJ Receptor.

As for `CCCCCCCCCCCCC(=O)N[C@@H](CCC(=O)NCCOCCOCC(=O)NCCOCCOCC(=O)N[C@@H](CCC(N)=O)C(=O)N[C@@H](CCCNC(=N)N)C(=O)N1CCC[C@H]1C(=O)N(C)[C@@H](CCCNC(=N)N)C(=O)N[C@@H](CC(C)C)C(=O)N[C@@H](CO)C(=O)N[C@@H](Cc1c[nH]cn1)C(=O)NCCC(=O)NCC(=O)N1CCC[C@H]1C(=O)N[C@@H](CCCC)C(=O)N1CCC[C@H]1C(=O)N[C@@H](Cc1ccc(Cl)cc1)C(=O)O)C(=O)O` [compound 424] ({Tridecanoyl-γGlu-AEEA-AEEA}-QRP[NMeR]LSH[βAla]GP[Nle]P[Phe(4-Cl)]-OH), the results for the fraction remaining at 4 h, 5 μM in data set [1] and in data set [2] were under 1% and 2%, respectively. In addition, the concentration giving a half-maximal response (EC50) on rat APJ receptor (setting [3]) was 17.2 nM.
With `CCCCCCCCCCCCC(=O)N[C@@H](CCC(=O)NCCOCCOCC(=O)NCCOCCOCC(=O)N[C@@H](CCC(N)=O)C(=O)N[C@@H](CCCNC(=N)N)C(=O)N1CCC[C@H]1C(=O)N(C)[C@@H](CCCNC(=N)N)C(=O)N[C@@H](CC(C)C)C(=O)N[C@@H](CO)C(=O)N[C@@H](Cc1c[nH]cn1)C(=O)N[C@@H](CCCCN)C(=O)NCC(=O)N1[C@H](C(=O)N[C@@H](CCCC)C(=O)N2CCC[C@H]2C(=O)N[C@@H](Cc2ccc(Cl)cc2)C(=O)O)C[C@@H]2CCCC[C@@H]21)C(=O)O` [compound 352] ({Tridecanoyl-γGlu-AEEA-AEEA}-QRP[NMeR]LSHKG[Oic][Nle]P[Phe(4-Cl)]-OH), the amount remaining at 4 h, 5 μM in data set [1] was found to be 0%; in data set [2], 88%. For the same compound, the EC50 at rat APJ receptor (setting [3]) worked out at 0.23 nM.
Consider `CCCC[C@H](NC(=O)[C@@H]1CCCN1C(=O)CNC(=O)[C@H](CCCCN)NC(=O)[C@H](Cc1c[nH]cn1)NC(=O)[C@H](CO)NC(=O)[C@](C)(CC(C)C)NC(=O)[C@H](CCCCNC(=N)N)NC(=O)[C@@H]1CCCN1C(=O)[C@@H](CCCNC(=N)N)NC(=O)[C@H](CCC(N)=O)NC(C)=O)C(=O)N1CCC[C@H]1C(=O)N[C@@H](Cc1ccc(Cl)cc1)C(=O)O` [compound 70], for which the results for the fraction remaining at 4 h, 5 μM in data set [1] and in data set [2] were 84.9% and 86.1%, respectively. In addition, on rat APJ receptor (setting [4]), the EC50 was 9.74 nM.
For the compound `CCCCCCCCCCCCC(=O)N[C@@H](CCC(=O)NCCOCCOCC(=O)NCCOCCOCC(=O)N[C@H](CCC(N)=O)C(=O)N[C@@H](CCCCNC(=N)N)C(=O)N1CCC[C@H]1C(=O)N[C@H](CCCNC(=N)N)C(=O)N[C@@H](CC1CCCCC1)C(=O)N[C@@H](CO)C(=O)N[C@@H](Cc1c[nH]cn1)C(=O)N[C@@H](CCCCN)C(=O)NCC(=O)N1[C@H](C(=O)N[C@@H](CCCC)C(=O)N2CCC[C@H]2C(=O)N[C@@H](C(=O)O)C2Cc3ccccc3C2)C[C@@H]2CCCC[C@@H]21)C(=O)O` [compound 431] ({Tridecanoyl-γGlu-AEEA-AEEA}-[dQ][hArg]P[dR][Cha]SHKG[Oic][Nle]P[dIgl]-OH), the EC50 at rat APJ receptor (setting [3]) worked out at 25 nM.
With `CCCC[C@H](NC(=O)[C@@H]1CCCN1C(=O)CNC(=O)[C@H](CCCCN)NC(=O)[C@H](Cc1c[nH]cn1)NC(=O)[C@H](CO)NC(=O)[C@H](CC(C)C)N(C)C(=O)[C@H](CCCNC(=N)N)NC(=O)[C@@H]1CCCN1C(=O)[C@H](CCCNC(=N)N)NC(=O)[C@H](CCC(N)=O)NC(=O)[C@H](CCCNC(=N)N)NC(C)=O)C(=O)N1CCC[C@H]1C(=O)N[C@@H](Cc1ccc(Cl)cc1)C(=O)O` [compound 64] (Ac-RQRPR[NMeL]SHKGP[Nle]P[Phe(4-Cl)]-OH), the EC50 at rat APJ receptor (setting [4]) came to 0.411 nM.
On the same count and under the same terms, to `CCCCCCCCCCCCC(=O)N[C@@H](CCC(=O)NCCOCCOCC(=O)NCCOCCOCC(=O)NC(CC)(CC)C(=O)N[C@@H](CCCCNC(=N)N)C(=O)N1CCC[C@H]1C(=O)N[C@H](CCCNC(=N)N)C(=O)N[C@@H](CC1CCCCC1)C(=O)N[C@@H](CO)C(=O)N[C@@H](Cc1c[nH]cn1)C(=O)N[C@@H](CCCCN)C(=O)NCC(=O)N1[C@H](C(=O)N[C@@H](CCCC)C(=O)N2CCC[C@H]2C(=O)N[C@@H](Cc2ccc(Cl)cc2)C(=O)O)C[C@@H]2CCCC[C@@H]21)C(=O)O` [compound 558] ({Tridecanoyl-γGlu-AEEA-AEEA}-[Deg][hArg]P[dR][Cha]SHKG[Oic][Nle]P[Phe(4-Cl)]-OH) belongs 12.5 nM.
With `CCCCCCCCCCCCC(=O)N[C@@H](CCC(=O)NCCOCCOCC(=O)NCCOCCOCC(=O)N[C@@H](CCC(N)=O)C(=O)N[C@@H](CCCCNC(=N)N)C(=O)N1CCC[C@H]1C(=O)N(C)[C@@H](CCCNC(=N)N)C(=O)N[C@@H](CC1CCCCC1)C(=O)N[C@@H](CO)C(=O)N[C@@H](Cc1c[nH]cn1)C(=O)N[C@@H](CCCCN)C(=O)NCC(=O)N1[C@H](C(=O)N[C@@H](CCCC)C(=O)N2CCC[C@H]2C(=O)N[C@@H](Cc2ccc3ccccc3c2)C(=O)O)C[C@@H]2CCCC[C@@H]21)C(=O)O` [compound 405] ({Tridecanoyl-γGlu-AEEA-AEEA}-Q[hArg]P[NMeR][Cha]SHKG[Oic][Nle]P[2Nal]-OH), the concentration giving a half-maximal response (EC50) at rat APJ receptor (setting [3]) was 13.8 nM.
`CCCCCCCCCCCCC(=O)N[C@@H](CCC(=O)NCCOCCOCC(=O)NCCOCCOCC(=O)N[C@@H](CCCCNC(=N)N)C(=O)N[C@@H](CCCC)C(=O)N[C@@H](CCC(N)=O)C(=O)N[C@@H](CCCCNC(=N)N)C(=O)N1CCC[C@H]1C(=O)N[C@H](CCCNC(=N)N)C(=O)N(C)[C@@H](CC(C)C)C(=O)N[C@@H](CO)C(=O)N[C@@H](C)C(=O)N[C@@H](CCCCN)C(=O)NCC(=O)N1[C@H](C(=O)N[C@@H](Cc2ccc(I)cc2)C(=O)N2CCC[C@H]2C(=O)N[C@H](Cc2ccc(-c3ccccc3)cc2)C(=O)O)C[C@@H]2CCCC[C@@H]21)C(=O)O` [compound 327] ({Tridecanoyl-γGlu-AEEA-AEEA}-[hArg][Nle]Q[hArg]P[dR][NMeL]SAKG[Oic][Phe(4-I)]P[dBip]-OH): the EC50 at rat APJ receptor (setting [4]) stood at 14.8 nM.
As for `CCCCCCCCCCCCC(=O)N[C@@H](CCC(=O)NCCOCCOCC(=O)NCCOCCOCC(=O)N[C@@H](CCC(N)=O)C(=O)N[C@@H](CCCNC(=N)N)C(=O)N1CCC[C@H]1C(=O)N(C)[C@@H](CCCNC(=N)N)C(=O)N[C@@H](CC1CCCCC1)C(=O)N[C@@H](CO)C(=O)N[C@@H](Cc1c[nH]cn1)C(=O)N[C@@H](CCCCN)C(=O)NCC(=O)NC(C)(C)C(=O)N[C@@H](CCCC)C(=O)N1CCC[C@H]1C(=O)N[C@@H](Cc1ccc(Cl)cc1)C(=O)O)C(=O)O` [compound 414] ({Tridecanoyl-γGlu-AEEA-AEEA}-QRP[NMeR][Cha]SHKG[Aib][Nle]P[Phe(4-Cl)]-OH), at rat APJ receptor (setting [3]), the EC50 came to 3.79 nM.
For the compound `CCCCCCCCCCCCC(=O)N[C@@H](CCC(=O)NCCOCCOCC(=O)NCCOCCOCC(=O)N[C@@H](CCC(N)=O)C(=O)N[C@@H](CCCCNC(=N)N)C(=O)N1CCC[C@H]1C(=O)N(C)[C@@H](CCCNC(=N)N)C(=O)N[C@@](C)(CC(C)C)C(=O)N[C@@H](CO)C(=O)N[C@@H](Cc1c[nH]cn1)C(=O)N[C@@H](CCCCN)C(=O)NCC(=O)N1CCC[C@H]1C(=O)N[C@@H](CCCC)C(=O)N1CCC[C@H]1C(=O)N[C@@H](Cc1ccc(Cl)cc1)C(=O)O)C(=O)O` [compound 460], the EC50 at rat APJ receptor (setting [3]) came to 0.0627 nM.
For the compound `CCCCCCCCCCCCC(=O)N[C@@H](CCC(=O)NCCOCCOCC(=O)NCCOCCOCC(=O)N[C@@H](CCCCNC(=N)N)C(=O)N[C@H](CCCNC(=N)N)C(=O)N[C@@H](CCC(N)=O)C(=O)N[C@@H](CCCC)C(=O)N1CCC[C@H]1C(=O)N[C@H](CCCNC(=N)N)C(=O)N(C)[C@@H](CC(C)C)C(=O)N[C@@H](C)C(=O)N[C@@H](C)C(=O)N[C@@H](CCCCN)C(=O)NCC(=O)N1[C@H](C(=O)N[C@@H](Cc2ccc(I)cc2)C(=O)N2CCC[C@H]2C(=O)N[C@H](Cc2ccc(-c3ccccc3)cc2)C(=O)O)C[C@@H]2CCCC[C@@H]21)C(=O)O` [compound 334] ({Tridecanoyl-γGlu-AEEA-AEEA}-[hArg][dR]Q[Nle]P[dR][NMeL]AAKG[Oic][Phe(4-I)]P[dBip]-OH), the EC50 on rat APJ receptor (setting [4]) is 44.7 nM.
